Results from patent US20250195475A1, “CDK2 INHIBITOR AND PREPARATION METHOD AND USE THEREOF” (INVENTISBIO CO., LTD., priority 2022, published 2025).

How the values were obtained:
[1] = biological target: CDK2/CyclinE1 (Homo sapiens (Human), UniProt P24941); assay: CDK2 kinase assay (TR-FRET); type: biochemical; settings: CDK2/CyclinE1 0.5 nM, ATP 50 μM
Procedure, shortened: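 Compounds were preincubated 10 min at room temperature with enzyme in 50 mM HEPES pH 7.5, 10 mM MgCl2, 1 mM EGTA, 2 mM DTT, 0.01% Tween-20, BSA. Substrate reaction ran 30 min at 25 °C, was stopped with EDTA and read by LANCE TR-FRET (ex 320/em 665 nm) after 1 h. IC50 came from a four-parameter fit of % inhibition.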

[2] = biological target: CDK1/CyclinB1 (Homo sapiens (Human), UniProt P06493); assay: CDK1 kinase assay (TR-FRET); type: biochemical; settings: CDK1/CyclinB 7.5 nM, ATP 17 μM
Chain of CDK1/CyclinB1 (P06493 whole entry): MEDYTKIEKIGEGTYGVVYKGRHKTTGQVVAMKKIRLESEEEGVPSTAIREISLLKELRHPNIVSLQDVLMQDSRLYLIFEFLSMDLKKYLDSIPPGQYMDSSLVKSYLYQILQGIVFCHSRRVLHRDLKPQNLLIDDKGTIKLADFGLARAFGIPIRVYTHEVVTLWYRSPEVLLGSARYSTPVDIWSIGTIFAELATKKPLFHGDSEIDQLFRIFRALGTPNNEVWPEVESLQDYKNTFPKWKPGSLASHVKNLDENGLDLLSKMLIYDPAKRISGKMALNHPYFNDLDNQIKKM
Chain of CDK1/CyclinB1 (P14635 whole entry partner): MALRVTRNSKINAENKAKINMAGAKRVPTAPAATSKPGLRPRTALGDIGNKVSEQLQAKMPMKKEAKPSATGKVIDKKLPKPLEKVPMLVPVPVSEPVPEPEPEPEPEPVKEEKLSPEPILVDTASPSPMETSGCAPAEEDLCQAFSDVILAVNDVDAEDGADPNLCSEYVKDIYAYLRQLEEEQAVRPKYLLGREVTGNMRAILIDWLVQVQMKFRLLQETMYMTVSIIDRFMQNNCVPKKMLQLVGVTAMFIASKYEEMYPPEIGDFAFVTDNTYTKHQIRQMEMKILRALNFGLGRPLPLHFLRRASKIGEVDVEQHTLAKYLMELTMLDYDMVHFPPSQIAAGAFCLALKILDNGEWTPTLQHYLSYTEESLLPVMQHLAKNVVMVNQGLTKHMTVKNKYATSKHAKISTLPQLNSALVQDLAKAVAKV
Protocol: (§1) The purpose of these assays is to evaluate the inhibition of small molecule inhibitors by using TR-FRET assay.
(§2) Compound Preparation. Dissslove the compounds into DMSO solution to make 10 mM DMSO stock. Serially dilute the stock solution from highest concentration down to lowest in DMSO to make the compound stock plate (100× stock plates). To make 5× compound intermediate plate, add 38 μL of assay buffer (50 mM HEPES, pH 7.5, 0.05 mg/mL BSA, 10 mM MgCl2, 1 mM EGTA, 0.01% Tween-20, 2 mM DTT) into each well of the V-bottom plate; then transfer 2 μL of the stock compound solution of each concentration from the compound stock plate (100× stock), and mix well.
(§3) Enzyme reaction. Transfer 2 μL compound from 5× intermediate plate into assay plate, then add 4 μL/well 2.5× Enzyme mix to assay plate, incubation for 10 min at room temperature. For positive control wells, add 4 μL/well assay buffer instead of Enzyme mix. Then add 4 μL/well 2.5× Substrate mix to assay plate, and incubation at 25° C. for 30 min at room temperature. After reaction, 10 μL 2× Detection mix (final 15 mM EDTA, 1× LANCE Detection Buffer, 0.5 nM Detection antibody) was added and incubated for 1 h prior to detection with excitation and emission at 320 and 665 nm (Tecan Spark® TR-FRET mode Tecan).
(§4) Inhibition rate (IR) of the tested compounds was determined by the following formula: IR (%)=(average High control−compound well)/(average High control−average Low control)*100%. Fit the compound IC50 from non-linear regression equation: Y=Bottom+(Top−Bottom)/(1+10^((Log IC50−X)*HillSlope)). X: Log of cpd concentration; Y: Inhibition rate (TR); Top and Bottom: Plateaus in same units as Y, log IC50: same log units as X; HillSlope: Slope factor or Hill slope.

[3] = biological target: CDK9/CyclinT1 (Homo sapiens (Human), UniProt P50750); assay: CDK9 kinase assay (TR-FRET); type: biochemical; settings: CDK9/CyclinT1 1.0 nM, ATP 3.5 μM
Chain of CDK9/CyclinT1 (P50750 whole entry): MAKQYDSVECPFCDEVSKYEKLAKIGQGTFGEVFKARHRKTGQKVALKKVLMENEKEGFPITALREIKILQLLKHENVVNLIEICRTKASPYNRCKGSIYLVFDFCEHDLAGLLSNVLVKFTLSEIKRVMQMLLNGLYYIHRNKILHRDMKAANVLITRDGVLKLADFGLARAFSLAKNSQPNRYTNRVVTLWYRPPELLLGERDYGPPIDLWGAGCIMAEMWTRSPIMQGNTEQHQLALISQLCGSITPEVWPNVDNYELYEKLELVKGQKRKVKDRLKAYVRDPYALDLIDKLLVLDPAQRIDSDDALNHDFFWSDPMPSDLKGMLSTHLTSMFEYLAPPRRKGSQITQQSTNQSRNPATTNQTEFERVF
Chain of CDK9/CyclinT1 (O60563 whole entry partner): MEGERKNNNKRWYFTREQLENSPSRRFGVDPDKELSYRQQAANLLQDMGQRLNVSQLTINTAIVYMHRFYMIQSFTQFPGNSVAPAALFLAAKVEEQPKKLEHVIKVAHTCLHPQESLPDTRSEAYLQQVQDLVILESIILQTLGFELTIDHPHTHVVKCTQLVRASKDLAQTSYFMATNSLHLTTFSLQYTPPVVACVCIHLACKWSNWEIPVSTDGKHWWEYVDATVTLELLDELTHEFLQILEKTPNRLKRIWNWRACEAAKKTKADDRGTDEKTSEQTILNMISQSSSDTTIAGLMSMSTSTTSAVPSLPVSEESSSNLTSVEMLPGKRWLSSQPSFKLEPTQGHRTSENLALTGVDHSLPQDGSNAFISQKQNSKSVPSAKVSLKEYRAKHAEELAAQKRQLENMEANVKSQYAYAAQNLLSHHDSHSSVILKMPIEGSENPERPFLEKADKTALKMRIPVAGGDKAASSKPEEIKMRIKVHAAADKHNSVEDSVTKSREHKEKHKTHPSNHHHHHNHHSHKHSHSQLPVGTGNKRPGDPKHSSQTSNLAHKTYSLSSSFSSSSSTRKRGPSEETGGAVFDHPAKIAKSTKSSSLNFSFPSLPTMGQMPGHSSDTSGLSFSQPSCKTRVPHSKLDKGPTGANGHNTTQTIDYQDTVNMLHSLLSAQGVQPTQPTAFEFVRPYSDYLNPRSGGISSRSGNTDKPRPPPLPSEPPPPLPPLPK
Protocol: as §1, §2, §3, §4

[4] = biological target: CDK4/CyclinD1 (Homo sapiens (Human), UniProt P11802); assay: CDK4 kinase assay (TR-FRET); type: biochemical; settings: CDK4/CyclinD1 0.50 nM, ATP 225 μM
Chain of CDK4/CyclinD1 (P11802 whole entry): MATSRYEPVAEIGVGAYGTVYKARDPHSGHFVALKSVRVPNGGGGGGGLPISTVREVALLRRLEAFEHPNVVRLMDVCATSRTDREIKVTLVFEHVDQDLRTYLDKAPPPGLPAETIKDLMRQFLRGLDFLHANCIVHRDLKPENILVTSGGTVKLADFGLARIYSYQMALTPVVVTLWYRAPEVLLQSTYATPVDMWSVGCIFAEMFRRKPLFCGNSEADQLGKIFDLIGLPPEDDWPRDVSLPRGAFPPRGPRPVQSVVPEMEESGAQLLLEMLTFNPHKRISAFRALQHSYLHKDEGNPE
Chain of CDK4/CyclinD1 (P24385 whole entry partner): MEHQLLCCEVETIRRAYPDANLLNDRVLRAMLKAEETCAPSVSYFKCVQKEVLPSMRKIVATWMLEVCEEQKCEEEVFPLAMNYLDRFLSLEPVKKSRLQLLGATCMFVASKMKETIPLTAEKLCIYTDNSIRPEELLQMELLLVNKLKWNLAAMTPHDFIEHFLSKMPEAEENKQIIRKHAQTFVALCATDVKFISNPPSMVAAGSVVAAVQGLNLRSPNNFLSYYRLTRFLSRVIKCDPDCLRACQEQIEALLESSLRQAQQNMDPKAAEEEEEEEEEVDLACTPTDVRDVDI
Protocol: as §1, §2, §3, §4

[5] = biological target: CDK6/CyclinD3 (Homo sapiens (Human), UniProt Q00534); assay: CDK6 kinase assay (TR-FRET); type: biochemical; settings: CDK6/CyclinD3 0.50 nM, ATP 140 μM
Chain of CDK6/CyclinD3 (Q00534 whole entry): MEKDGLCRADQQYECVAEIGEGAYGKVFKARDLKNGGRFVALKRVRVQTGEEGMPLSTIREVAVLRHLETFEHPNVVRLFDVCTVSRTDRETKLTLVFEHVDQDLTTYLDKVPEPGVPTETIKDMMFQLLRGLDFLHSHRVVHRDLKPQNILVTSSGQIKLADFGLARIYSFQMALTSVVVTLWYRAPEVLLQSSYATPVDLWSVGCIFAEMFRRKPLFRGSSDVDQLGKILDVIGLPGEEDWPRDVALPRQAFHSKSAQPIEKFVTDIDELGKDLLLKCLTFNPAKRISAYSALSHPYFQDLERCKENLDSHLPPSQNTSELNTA
Chain of CDK6/CyclinD3 (P30281 whole entry partner): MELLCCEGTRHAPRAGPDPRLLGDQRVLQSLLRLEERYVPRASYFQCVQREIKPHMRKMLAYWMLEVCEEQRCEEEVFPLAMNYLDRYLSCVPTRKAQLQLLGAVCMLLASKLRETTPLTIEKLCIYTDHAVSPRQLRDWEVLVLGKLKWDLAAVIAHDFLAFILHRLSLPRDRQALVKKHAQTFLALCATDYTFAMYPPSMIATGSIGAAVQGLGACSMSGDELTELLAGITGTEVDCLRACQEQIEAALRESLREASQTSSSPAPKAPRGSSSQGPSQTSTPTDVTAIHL
Protocol: as §1, §2, §3, §4

[6] = tested on: OVCAR3 cancer cells; assay: OVCAR3 proliferation assay (CellTiter-Glo); type: cell-based; settings: Homo sapiens, OVCAR-3, 144 h, 6 days incubation, read-out: OVCAR3 CTG IC50
Protocol: The OVCAR3 cancer cells were cultured at temperature 37° C., 5% CO2 incubator. The cells were routinely subcultured. The cells growing in an exponential growth phase were harvested and counted for plating. Plate 100 μL of cell suspension into the assay plates. Incubate the assay plates at 37° C., 5% CO2, 95% air and 100% relative humidity overnight. The compounds to be tested were dissolved in dimethyl sulfoxide and prepared with a stock concentration of 10 mM. Serially dilute the stock solution from highest concentration down to lowest in DMSO to make the compound stock plate (200× stock plates). Add 0.5 μL of the 200× compound of each well into the cells in assay plates. The final DMSO concentration was 0.5%. Return the assay plate into incubator and incubate for 6 days. The procedures were performed according to the Promega CellTiter-Glo Luminescent Cell Viability Assay Kit to detect cell viability.
as §4, with “(IR);” for “(TR);”, “Y;” for “Y,”

[7] = biological target: GSK3β (Homo sapiens (Human), UniProt P49841); assay: GSK3β kinase assay (TR-FRET); type: biochemical; settings: GSK3β 1.0 nM, ATP 8.0 μM
Chain of GSK3β (P49841 whole entry): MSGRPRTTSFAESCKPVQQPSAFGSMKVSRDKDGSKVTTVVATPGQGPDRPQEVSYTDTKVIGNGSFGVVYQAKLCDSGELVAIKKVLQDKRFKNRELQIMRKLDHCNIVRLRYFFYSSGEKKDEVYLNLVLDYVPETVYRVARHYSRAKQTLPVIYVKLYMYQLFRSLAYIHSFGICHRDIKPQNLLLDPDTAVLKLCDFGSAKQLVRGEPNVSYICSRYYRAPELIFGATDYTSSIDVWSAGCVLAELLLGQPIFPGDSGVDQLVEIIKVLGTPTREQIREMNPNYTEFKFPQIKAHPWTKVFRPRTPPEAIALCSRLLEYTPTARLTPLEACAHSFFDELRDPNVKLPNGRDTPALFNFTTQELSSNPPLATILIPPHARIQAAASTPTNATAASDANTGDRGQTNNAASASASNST
Protocol: as §1, §2, §3, §4

| Compound | IC50 [1] | IC50 [2] | further results |
| --- | --- | --- | --- |
| CC(C)NC(=O)O[C@@H]1CC[C@H](c2cc(NC(=O)C3CC(C)N(S(C)(=O)=O)C3)n[nH]2)C1 (single isomer, unassigned) [Compound 143] | 0.0012 µM | 0.0609 µM | IC50 [3]: 1 µM |
| CC(C)NC(=O)OC1COC(c2cc(NC(=O)Cc3cc(F)cc(F)c3)n[nH]2)C1 (centres unmarked) [Compound 24] | 0.0018 µM | 0.102 µM | – |
| C#C[C@H]1C[C@@H]1C(=O)Nc1cc([C@H]2CC[C@@H](OC(=O)NC(C)C)C2)[nH]n1 [Compound 41] | 0.0009 µM | – | IC50 [6]: 0.193 µM; IC50 [4]: 0.306 µM; IC50 [7]: 0.572 µM; IC50 [5]: 0.254 µM |
| CCS(=O)(=O)N1CC[C@@H](C(=O)Nc2cc([C@H]3CC[C@@H](OC(=O)NC(C)C)C3)[nH]n2)C1 [Compound 49] | 0.0022 µM | 0.132 µM | IC50 [7]: 0.395 µM |
| CC1(NC(=O)OC2COC(c3cc(NC(=O)Cc4cc(F)cc(F)c4)n[nH]3)C2)CCOC1 (centres unmarked) [Compound 52] | 0.0016 µM | 0.111 µM | IC50 [4]: 1 µM; IC50 [7]: 1 µM; IC50 [5]: 1 µM |
| CC(C)(C)NC(=O)O[C@@H]1CC[C@H](c2cc(NC(=O)[C@@H]3CCN(S(C)(=O)=O)C3)n[nH]2)C1 [Compound 84] | 0.0016 µM | – | IC50 [6]: 0.074 µM |
| Cn1nccc1C(=O)Nc1cc([C@@H]2C[C@H](OC(=O)NC34CC(C3)C4)CO2)[nH]n1 [Compound 97] | 0.0011 µM | 0.0726 µM | IC50 [7]: 0.381 µM |
| Cn1nccc1C(=O)Nc1cc([C@@H]2C[C@H](OC(=O)NC(C)(C)C)CO2)[nH]n1 [Compound 102] | 0.0025 µM | 0.133 µM | – |
| Cn1nccc1C(=O)Nc1cc([C@H]2C[C@@H](OC(=O)NC3CCC3)CO2)[nH]n1 [Compound 122] | 0.0019 µM | 0.0894 µM | – |
| CC(C)NC(=O)O[C@@H]1CC[C@H](c2cc(NC(=O)C34CC(C(=O)NO)(C3)C4)n[nH]2)C1 [Compound 126] | 0.0025 µM | 0.142 µM | – |
| CC(C)NC(=O)O[C@@H]1CC[C@H](C2=CC(NC(=O)[C@H]3C[C@@H]3[C@H](C)O)=NC2)C1 [Compound 136] | 0.0012 µM | 0.0646 µM | – |
| O=C(NC12CC(F)(C1)C2)O[C@@H]1CC[C@H](c2cc(NC(=O)[C@@H]3CCN(S(=O)(=O)C4CC4)C3)n[nH]2)C1 [Compound 181] | 0.0008 µM | 0.0344 µM | – |
| C#CC1(NC(=O)O[C@H]2CO[C@@H](c3cc(NC(=O)c4ccnn4C)n[nH]3)C2)CCC1 [Compound 189] | 0.001 µM | 0.0586 µM | – |
| CCC(C)(C)NC(=O)O[C@@H]1CO[C@H](c2cc(NC(=O)c3ccnn3C)n[nH]2)C1 [Compound 191] | 0.0012 µM | 0.101 µM | IC50 [3]: 0.131 µM |
| Cn1nccc1C(=O)Nc1cc([C@@H]2C[C@H](OC(=O)NC3(CF)CCC3)CO2)[nH]n1 [Compound 216] | 0.0018 µM | – | – |
| Cc1c(C2CC2C(=O)Nc2cc([C@H]3CC[C@@H](OC(=O)NC4(C)CCC4)C3)[nH]n2)cnn1C (some centres unmarked) [Compound 217] | 0.0297 µM | – | – |
| Cc1c([C@@H]2C[C@H]2C(=O)Nc2cc([C@H]3CC[C@@H](OC(=O)NC4(C)CCC4)C3)[nH]n2)cnn1C [Compound 218] | 0.0006 µM | – | – |
| C#C[C@H]1C[C@@H]1C(=O)Nc1cc([C@@H]2CC[C@H](OC(=O)NC3(C)CCC3)C2)[nH]n1 [Compound 219] | 0.0005 µM | – | – |
| C#C[C@H]1C[C@@H]1C(=O)Nc1cc([C@@H]2CC[C@H](OC(=O)NC3(C)CC3)C2)[nH]n1 [Compound 223] | 0.0005 µM | – | – |

Continued by falling IC50 [1], values first:

| IC50 [1] | IC50 [2] | Compound | further results |
| --- | --- | --- | --- |
| 0.0032 µM | 0.255 µM | Cn1nccc1C(=O)Nc1cc([C@H]2CC[C@@H](OC(=O)NC3COC4(CCC4)C3)C2)[nH]n1 (single isomer, unassigned) [Compound 44] | – |
| 0.0021 µM | 0.134 µM | CC1(NC(=O)OC2COC(c3cc(NC(=O)Cc4cc(F)cc(F)c4)n[nH]3)C2)CCOC1 (centres unmarked) [Compound 53] | – |
| 0.0019 µM | 0.118 µM | CC[C@H](C)NC(=O)O[C@@H]1CC[C@H](c2cc(NC(=O)[C@H]3C[C@@H]3COC)n[nH]2)C1 [Compound 33] | IC50 [4]: 0.652 µM; IC50 [5]: 0.574 µM |
| 0.0015 µM | 0.0748 µM | CC[C@H](C)NC(=O)O[C@@H]1CO[C@H](c2cc(NC(=O)c3ccnn3C)n[nH]2)C1 [Compound 100] | IC50 [7]: 0.706 µM |
| 0.0014 µM | – | Cn1nccc1C(=O)Nc1cc([C@H]2C[C@@H](OC(=O)NC3(CF)CCC3)CO2)[nH]n1 [Compound 211] | – |
| 0.0012 µM | 0.0549 µM | CC(C)NC(=O)O[C@@H]1CC[C@H](c2cc(NC(=O)[C@@H]3CCN(S(C)(=O)=O)C3)n[nH]2)C1 [Compound 25] | IC50 [4]: 0.51 µM; IC50 [5]: 0.899 µM |
| 0.0011 µM | 0.0694 µM | C#C[C@H]1C[C@@H]1C(=O)Nc1cc([C@H]2CC[C@@H](OC(=O)NC3(C)COC3)C2)[nH]n1 [Compound 180] | IC50 [3]: 0.21 µM |
| 0.0011 µM | – | C#C[C@H]1C[C@@H]1C(=O)Nc1cc([C@@H]2CC[C@H](OC(=O)NC3(C)COC3)C2)[nH]n1 [Compound 222] | – |
| 0.0009 µM | – | CC(C)NC(=O)O[C@@H]1CC[C@H](c2cc(NC(=O)C34CC(C#N)(C3)C4)n[nH]2)C1 [Compound 109] | IC50 [6]: 0.237 µM |
